# Measurements published in US20240165129A1, “METHODS OF TREATING PAIN AND DEPRESSION” (priority 2022, published 2024).
# Assays:
# [1] = test system: ASIC currents (ASIC1a-like) in cortical neurons; experiment: Patch-clamp recording of ASIC (ASIC1a-like) currents in primary cultured mouse cortical neurons; assay type: cell-based
# [2] = test system: mice (depression-like behavior); experiment: Forced swim test; assay type: in vivo, mouse
# [3] = test system: mice (depression-like behavior); experiment: Tail suspension test; assay type: in vivo, mouse
# Description: This test is performed by the Tennessee Mouse Genome Consortium (tnmouse.org/neuromutagenesis/behavioral). Mice are suspended by the tail from a ledge ˜60 cm from the ground with adhesive tape. Immobility is defined as the absence of movement and is scored over a 6—min trial.
# [4] = test system: C57BL/6J mice (inflammatory pain); experiment: Carrageenan-evoked inflammatory pain, von Frey paw withdrawal; assay type: in vivo, mouse; details: 12 mg/kg IV, 2 h after 2% carrageenan intraplantar
# Description: Triol inhibits the above ASICs, so Triol has an analgesic effect. […] Experiments are performed on 12-week-old (20-25 g) C57BL/6J mice following the guidelines of the International Association for the Study of Pain. Inflammatory pain is evoked by intraplantar injection in the left hindpaw of 2% carrageenan (20 μl). After 2 h, Triol (12 mg/kg) or vehicle (20% HP-β-CD) is injected IV. The mechanical withdrawal threshold on the plantar surface of the hindpaw is measured with a set of von Frey hairs in the range of 0.4-26 gm (0.4, 1.2, 2, 4, 6, 8, 10, 15, 26 gm).
# [5] = test system: primary cultured mouse cortical neurons; details: pH 6.0, n=7-8
# stroke = details: in vivo; cited from earlier work
# [6] = test system: primary cultured mouse cortical neurons; experiment: Acidosis-induced neuronal injury, FDA/PI staining; details: 1 and 10 μM, pH 6.0 for 1.5 h, 24 h
# homomeric ASIC1β = target: T1, homomeric ASIC1β (Rattus norvegicus, UniProt P55926); experiment: Patch-clamp recording of ASIC1β currents in CHO cells with transient expression; details: 10 μM, pH drop 7.4 to 6.0, n=4-5
# T1 sequence (P55926 1-559 isoform P55926-3): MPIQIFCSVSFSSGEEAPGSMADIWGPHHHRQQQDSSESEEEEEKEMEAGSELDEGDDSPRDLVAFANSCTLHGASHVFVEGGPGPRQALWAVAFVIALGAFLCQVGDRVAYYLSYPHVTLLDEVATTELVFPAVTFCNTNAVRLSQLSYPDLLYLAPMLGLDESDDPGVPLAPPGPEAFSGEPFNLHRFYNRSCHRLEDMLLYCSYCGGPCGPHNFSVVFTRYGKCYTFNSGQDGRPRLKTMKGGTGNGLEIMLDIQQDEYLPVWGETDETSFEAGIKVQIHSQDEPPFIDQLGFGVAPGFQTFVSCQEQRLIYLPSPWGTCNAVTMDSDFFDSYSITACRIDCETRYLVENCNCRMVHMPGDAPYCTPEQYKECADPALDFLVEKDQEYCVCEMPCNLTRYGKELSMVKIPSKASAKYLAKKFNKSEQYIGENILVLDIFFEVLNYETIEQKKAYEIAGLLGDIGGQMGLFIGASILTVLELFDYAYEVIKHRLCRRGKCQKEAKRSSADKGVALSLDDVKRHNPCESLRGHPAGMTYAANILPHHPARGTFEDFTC
# Description: Chinese hamster ovary (CHO) cells were cultured in F12-K medium (Invitrogen) plus 10% fetal bovine serum, 50 units/nal penicillin, and 50 μg/m1 streptomycin. At ˜50% confluence, CHO cells were co-transfected with cDNAs for rat ASIC1β, ASIC2a, or ASIC3, and that for GFP. GFP-positive cells were used for electrophysiological recordings 24-72 h after transient transfection.
# (§1) ASIC currents were recorded using patch-clamp techniques. Pipette solution contained (mM): 140 CsF, 1 CaCl2, 2 MgCl2, 11 EGTA, 2 tetraethylammonium chloride, 10 HEPES and 4 MgATP, pH 7.3 adjusted with CsOH, 290-300 mOsm. Extracellular Fluid (ECF) contained (mM): 140 NaCl, 5.4 KCl, 2 CaCl2, 1 MgCl2, 10 glucose, and 10 HEPES (320-330 mOsm). A multi-barrel perfusion system (SF-77 Warner Instruments, Hamden, CT) was used to obtain a rapid exchange of ECFs. Currents were recorded with Axopatch 200B amplifier, filtered at 2 kHz, and digitized at 5 kHz using Digidata 1332A. ASIC currents were induced by rapid perfusion of the cells with acidic ECF for 4 seconds. Unless otherwise stated, cells were clamped at a holding potential of −60 mV. […] Data were excluded for statistical analysis when access resistance was >10 MΩ or leak current was >100 pA.
# Therefore, the study used pH 6.0 and 4.5 to activate ASIC1β and ASIC2a currents, respectively. […]
# [7] = target: T2, heteromeric ASIC1a/2a channels (UniProt P78348+Q62962); details: Triol 10 μM, PcTx-1 insensitive cells, pH 6.0, n=4
# T2 sequence (P78348 1-528): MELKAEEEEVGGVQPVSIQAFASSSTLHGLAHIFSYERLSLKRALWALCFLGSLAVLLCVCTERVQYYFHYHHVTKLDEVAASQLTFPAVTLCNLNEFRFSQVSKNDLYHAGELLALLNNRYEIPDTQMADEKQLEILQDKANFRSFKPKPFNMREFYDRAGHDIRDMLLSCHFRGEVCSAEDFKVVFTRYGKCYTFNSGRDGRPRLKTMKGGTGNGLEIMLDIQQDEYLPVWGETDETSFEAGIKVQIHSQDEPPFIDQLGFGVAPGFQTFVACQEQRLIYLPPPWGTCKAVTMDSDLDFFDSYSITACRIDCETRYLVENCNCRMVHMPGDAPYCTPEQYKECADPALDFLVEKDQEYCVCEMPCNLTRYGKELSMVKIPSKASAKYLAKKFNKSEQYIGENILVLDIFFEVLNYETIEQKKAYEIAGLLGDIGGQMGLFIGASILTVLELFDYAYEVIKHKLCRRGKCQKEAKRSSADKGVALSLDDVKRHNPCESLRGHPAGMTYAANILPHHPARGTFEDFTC
# T2 sequence (Q62962 1-512): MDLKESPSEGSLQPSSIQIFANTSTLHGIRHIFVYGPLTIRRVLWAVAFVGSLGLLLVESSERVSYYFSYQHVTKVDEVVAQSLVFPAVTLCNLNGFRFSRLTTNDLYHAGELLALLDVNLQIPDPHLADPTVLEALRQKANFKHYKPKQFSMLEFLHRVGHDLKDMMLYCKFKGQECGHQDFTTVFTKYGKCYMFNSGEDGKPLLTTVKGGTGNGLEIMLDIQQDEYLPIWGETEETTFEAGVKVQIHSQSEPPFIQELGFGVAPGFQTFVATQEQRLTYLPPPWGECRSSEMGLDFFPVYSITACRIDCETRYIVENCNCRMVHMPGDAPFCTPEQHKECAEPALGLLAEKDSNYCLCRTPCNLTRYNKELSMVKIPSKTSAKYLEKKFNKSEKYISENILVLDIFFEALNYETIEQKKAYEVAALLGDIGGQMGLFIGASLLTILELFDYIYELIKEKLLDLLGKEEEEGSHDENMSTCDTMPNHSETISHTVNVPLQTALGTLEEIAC
# Description: as §1
# Only the GFP-positive cells were recorded. The GFP-positive CHO-1a cells may express a mix of homomeric ASIC1a, ASIC2a, or heteromeric ASIC1a/2a channels. Since homomeric ASIC2a channels are not activated at pH 6.0 37, the ASIC currents activated at pH 6.0 might be due to the activation of ASIC1a or ASIC1a/2a channels.
# [8] = test system: Sprague-Dawley rats (CFA-induced pain); experiment: CFA rat pain model, paw pressure (vocalization) and mechanical hypersensitivity tests
# Description: Male Sprague-Dawley rats (150-175 g) are acclimatized for a week before testing. Rats are housed in a controlled room with a 12-hour light/dark cycle, with free access to food and water. Rats are housed 4 per cage except after the bilateral implantation experiment (2 per cage and individually following surgery). Pain is induced by a single unilateral intra-articular injection of 50 μl complete Freund's adjuvant (CFA, heat-killed Mycobacterium 2 mg/ml) in the right hindpaw under isoflurane (4%) anaesthesia. Sham rats are injected with 50 μl of vehicle in the same conditions. Behavioral experiments are performed 14-16 days after pain induction, when rats weighed between 260 to 320 g. […]
# The effect of Triol (0.05 μg/0.5 μl/side) 15 min before the behavioral tests is evaluated in sham and Pain rats, 14 to 16 days following pain induction. The behavior of each rat is then assessed in the different tests (i.e., social interaction or elevated plus maze for anxiety, and paw pressure or paw immersion for pain, see below).
# Mechanical hypersensitivity in sham and Pain animals is assessed with an analgesiometer (paw pressure test). Nociceptive thresholds are measured by applying increased pressure to the ipsilateral ankle of unrestrained rats until a vocalisation is obtained. […] Vocalization threshold is assessed at baseline and 15, 25 and 45 min following Triol, mambalgin-1 or saline administration.
# [9] = 10 μM, before and after perfusion for 5 min
smiles,measurement,setting,value
"CC(C)CCC[C@@H](C)[C@H]1CC[C@H]2[C@@H]3C[C@@H](O)[C@@]4(O)C[C@@H](O)CC[C@]4(C)[C@H]3CC[C@]12C [Triol, cholestane-3β, 5α, 6β-triol]",effect on current-voltage relationship (IV),[1]; [9],does not affect the current-voltage relationship
same,shift in the pH dose-response of ASIC peak currents,[1]; [9],not a significant shift
same,decrease of ASIC currents in cortical neurons,"[1]; 10 μM, within 5 min of application/perfusion",~40%
same,reversibility of ASIC current inhibition in cortical neurons,[1]; after 30 min washout (data not shown),irreversible
same,voltage dependence of inhibitory activity,[1]; holding potential −60 mV vs −30 mV,no significant change in the inhibitory activity
same,depression-like behavior in the forced swim test,[2],decreased levels of depression-like behavior
same,depression-like behavior in the tail suspension test,[3],decreased levels of depression-like behavior
same,latency for the paw withdrawal reflex,[4],increases the latency for the paw withdrawal reflex
same,acid-induced cytotoxicity (LDH release),[5],significantly decreased
same,therapeutic time window for stroke treatment,stroke,at least 4 h
same,death rate of cortical neurons (PI staining),[6],decrease death rate
same,survival rate of cortical neurons (FDA staining),[6],increase survival rate
same,effect on ASIC1β currents,homomeric ASIC1β,no significant effect
same,effect on PcTx-1 insensitive ASIC currents,[7],inhibited these currents
same,effects in the pain tests relative to commonly used pain relief drugs,[8],independent of and additive to
same,pain-related behavior in vocalization and mechanical hypersensitivity tests,[8],decreased levels of pain-related behavior
